Assay results taken from ChEMBL document CHEMBL5523721, “Derivatives of D(-) glutamine-based MMP-2 inhibitors as an effective remedy for the management of chronic myeloid leukemia-Part-I: Synthesis, biological screening and in silico binding interaction analysis” (Eur J Med Chem, 2024).
Active and inactive are the calls of the source. No cut-off for these calls is given here.

Columns and labels:
[1] = test system: K562; assay: Antiproliferative activity against human K562 cells incubated for 72 hrs by PrestoBlue assay; details: K562, 72 h
[2] = target: Neutrophil collagenase (Homo sapiens, UniProt P22894); assay: Inhibition of MMP-8 (unknown origin)
Neutrophil collagenase, sequence (P22894 whole entry): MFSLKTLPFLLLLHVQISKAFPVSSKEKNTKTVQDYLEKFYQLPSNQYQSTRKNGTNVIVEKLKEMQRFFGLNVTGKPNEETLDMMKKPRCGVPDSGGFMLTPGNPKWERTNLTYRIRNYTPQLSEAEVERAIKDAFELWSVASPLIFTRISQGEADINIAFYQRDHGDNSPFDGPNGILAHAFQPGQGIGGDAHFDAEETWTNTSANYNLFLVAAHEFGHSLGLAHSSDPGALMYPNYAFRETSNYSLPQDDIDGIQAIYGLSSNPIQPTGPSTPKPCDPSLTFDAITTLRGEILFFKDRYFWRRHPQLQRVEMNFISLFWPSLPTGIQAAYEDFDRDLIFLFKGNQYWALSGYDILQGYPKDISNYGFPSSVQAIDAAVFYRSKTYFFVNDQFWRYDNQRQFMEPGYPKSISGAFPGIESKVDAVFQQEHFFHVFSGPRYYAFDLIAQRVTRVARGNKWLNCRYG

[3] = test system: A549; assay: cells; details: Homo sapiens, A549, 72 h
Description: Antiproliferative activity against human A549 cells incubated for 72 hrs by MTT assay

[4] = Cytotoxicity against HEK293 cells incubated for 72 hrs by MTT assay; type: toxicity, cell-based; details: human
[5] = test system: U-87 MG; assay: Antiproliferative activity against human U-87 MG cells incubated for 72 hrs by MTT assay
[6] = test system: HT-1080; assay: Antiproliferative activity against human HT-1080 cells incubated for 72 hrs by MTT assay; details: HT-1080, 72 h
[7] = test system: K562; assay: Induction of apoptosis in human K562 cells assessed as increase in necrotic cells at 1.992 uM after 72 hrs by AO/EB staining based fluorescence microscopic analysis; type: functional, cell-based
[8] = test system: K562; assay: Induction of apoptosis in human K562 cells assessed as appearance of nucleus with fragmented DNA at 1.992 uM after 72 hrs by AO/EB staining based fluorescence microscopic analysis; type: functional, cell-based
[9] = test system: ACHN; assay: Antiangiogenic activity in human ACHN cells assessed as reduction in total segment length at 17.157 uM incubated for 72 hrs by microscopic analysis; type: functional, cell-based
[10] = test system: K562; assay: Induction of cell cycle arrest in human K562 cells assessed as cell population at G2/M phase at 1.992 uM incubated for 72 hrs by propidium iodide staining based flow cytometry analysis (reference value: 22.9 +/- 1.9%); type: functional
[11] = test system: K562; assay: Induction of apoptosis in human K562 cells assessed as increase in late apoptotic dead cells at 1.992 uM after 72 hrs by AO/EB staining based fluorescence microscopic analysis; type: functional, cell-based
[12] = test system: K562; assay: Induction of cell cycle arrest in human K562 cells assessed as cell population at sub-G1 phase at 1.992 uM incubated for 72 hrs by propidium iodide staining based flow cytometry analysis; type: functional
[13] = test system: ACHN; assay: Antiangiogenic activity in human ACHN cells assessed as reduction in mesh length at 17.157 uM incubated for 72 hrs by microscopic analysis; type: functional, cell-based
[14] = test system: ACHN; assay: Antiangiogenic activity in human ACHN cells assessed as reduction in branch length at 17.157 uM incubated for 72 hrs by microscopic analysis; type: functional, cell-based
[15] = test system: ACHN; assay: Antiproliferative activity against human ACHN cells incubated for 72 hrs by MTT assay
[16] = test system: K562; assay: Induction of cell cycle arrest in human K562 cells assessed as cell population at G1 phase at 1.992 uM incubated for 72 hrs by propidium iodide staining based flow cytometry analysis (reference value: 44.4 +/- 1.5%); type: functional
[17] = test system: K562; assay: Induction of apoptosis in human K562 cells assessed as increase in early apoptotic cells at 1.992 uM after 24 hrs by AO/EB staining based fluorescence microscopic analysis; type: functional, cell-based
[18] = Downregulation of MMP-2 expression in human K562 cells at 1.992 uM incubated for 48 hrs by flow cytometry analysis; type: functional
[19] = test system: K562; assay: Induction of apoptosis in human K562 cells assessed as morphological changes at 1.992 uM after 72 hrs by AO/EB staining based fluorescence microscopic analysis; type: functional, cell-based
[20] = target: Macrophage metalloelastase (Homo sapiens, UniProt P39900); assay: Inhibition of MMP-12 (unknown origin)
Macrophage metalloelastase, sequence (P39900 whole entry): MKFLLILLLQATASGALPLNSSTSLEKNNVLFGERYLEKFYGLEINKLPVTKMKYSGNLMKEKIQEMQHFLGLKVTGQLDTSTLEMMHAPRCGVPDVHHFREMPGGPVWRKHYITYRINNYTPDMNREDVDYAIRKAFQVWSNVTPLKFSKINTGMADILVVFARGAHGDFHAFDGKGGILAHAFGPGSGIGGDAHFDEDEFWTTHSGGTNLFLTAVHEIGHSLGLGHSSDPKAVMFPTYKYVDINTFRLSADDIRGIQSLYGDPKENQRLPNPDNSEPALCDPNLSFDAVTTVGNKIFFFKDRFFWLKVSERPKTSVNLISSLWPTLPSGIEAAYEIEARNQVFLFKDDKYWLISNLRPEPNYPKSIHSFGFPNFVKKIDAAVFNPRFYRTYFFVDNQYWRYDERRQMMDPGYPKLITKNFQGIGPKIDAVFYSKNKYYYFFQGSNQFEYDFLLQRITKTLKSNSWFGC

[21] = test system: ACHN; assay: Antiangiogenic activity in human ACHN cells assessed as reduction in total tube length at 17.157 uM incubated for 72 hrs by microscopic analysis; type: functional, cell-based
[22] = test system: K562; assay: Induction of apoptosis in human K562 cells assessed as total apoptotic cells at 1.992 uM incubated for 72 hrs by Annexin-V/PI staining based flow cytometry analysis (reference value: 2.6 +/- 1.1%); type: functional
[23] = test system: K562; assay: Induction of cell cycle arrest in human K562 cells assessed as cell population at S phase at 1.992 uM incubated for 72 hrs by propidium iodide staining based flow cytometry analysis (reference value: 32.7 +/- 3.1%); type: functional
[24] = test system: K562; assay: Induction of apoptosis in human K562 cells at 1.992 uM by AO/EB staining based fluorescence microscopic analysis; type: functional, cell-based; details: time 24-72 hrs, TDE = time-dependent effect
[25] = test system: K562; assay: Induction of apoptosis in human K562 cells assessed as appearance of apoptotic cells at 1.992 uM after 24 to 72 hrs by AO/EB staining based fluorescence microscopic analysis; type: functional, cell-based; details: time 24-72 hrs
[26] = test system: K562; assay: Induction of apoptosis in human K562 cells assessed as increase in late apoptotic cells at 1.992 uM after 48 hrs by AO/EB staining based fluorescence microscopic analysis; type: functional, cell-based
[27] = target: Matrix metalloproteinase-9 (Homo sapiens, UniProt P14780); assay: Inhibition of MMP-9 (unknown origin) using chromogenic substrate incubated for 1 hr by microplate photometer analysis
Matrix metalloproteinase-9, sequence (P14780 whole entry): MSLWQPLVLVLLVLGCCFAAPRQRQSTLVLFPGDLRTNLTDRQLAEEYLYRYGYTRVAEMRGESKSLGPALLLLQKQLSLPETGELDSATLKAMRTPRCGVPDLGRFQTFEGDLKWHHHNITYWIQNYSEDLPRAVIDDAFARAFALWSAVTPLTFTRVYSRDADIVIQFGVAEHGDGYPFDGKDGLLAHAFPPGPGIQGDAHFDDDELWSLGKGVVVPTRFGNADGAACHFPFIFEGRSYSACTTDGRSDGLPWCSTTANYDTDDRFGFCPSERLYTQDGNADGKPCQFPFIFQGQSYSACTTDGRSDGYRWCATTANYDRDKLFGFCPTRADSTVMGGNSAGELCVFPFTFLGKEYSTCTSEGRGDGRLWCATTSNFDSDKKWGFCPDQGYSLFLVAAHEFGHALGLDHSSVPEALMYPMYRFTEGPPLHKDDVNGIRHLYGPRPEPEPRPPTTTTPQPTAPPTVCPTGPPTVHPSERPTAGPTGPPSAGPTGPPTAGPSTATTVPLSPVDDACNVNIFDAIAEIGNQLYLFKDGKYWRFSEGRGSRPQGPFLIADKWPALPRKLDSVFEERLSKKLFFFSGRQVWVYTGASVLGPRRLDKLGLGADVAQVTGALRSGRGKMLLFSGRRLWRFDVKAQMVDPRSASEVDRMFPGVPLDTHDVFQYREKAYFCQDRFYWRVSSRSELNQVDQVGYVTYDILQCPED

[28] = test system: K562; assay: Antiproliferative activity against human K562 cells; type: functional, cell-based
[29] = target: 72 kDa type IV collagenase (Homo sapiens, UniProt P08253); assay: Inhibition of MMP-2 (unknown origin) using chromogenic substrate incubated for 1 hr by microplate photometer analysis
72 kDa type IV collagenase, sequence (P08253 whole entry): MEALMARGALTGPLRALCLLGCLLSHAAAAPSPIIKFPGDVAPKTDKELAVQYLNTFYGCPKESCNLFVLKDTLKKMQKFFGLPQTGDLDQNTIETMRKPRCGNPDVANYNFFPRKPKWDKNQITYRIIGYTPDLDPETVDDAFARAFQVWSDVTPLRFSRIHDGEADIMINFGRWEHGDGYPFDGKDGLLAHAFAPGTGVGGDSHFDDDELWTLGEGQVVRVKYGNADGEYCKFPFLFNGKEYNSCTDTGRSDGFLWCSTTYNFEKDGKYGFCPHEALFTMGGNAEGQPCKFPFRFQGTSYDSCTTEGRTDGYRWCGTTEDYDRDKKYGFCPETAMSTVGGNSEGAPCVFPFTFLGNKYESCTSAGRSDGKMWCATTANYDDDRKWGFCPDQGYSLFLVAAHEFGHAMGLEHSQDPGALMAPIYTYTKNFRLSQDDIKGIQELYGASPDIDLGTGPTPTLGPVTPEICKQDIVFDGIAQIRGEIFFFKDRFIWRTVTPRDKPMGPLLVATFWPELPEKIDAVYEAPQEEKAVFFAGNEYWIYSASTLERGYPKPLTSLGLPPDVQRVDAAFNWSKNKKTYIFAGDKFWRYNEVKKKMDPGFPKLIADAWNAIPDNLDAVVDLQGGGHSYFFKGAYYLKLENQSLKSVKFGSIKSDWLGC

[30] = test system: ACHN; assay: Antiangiogenic activity in human ACHN cells assessed as reduction in branch length at 26.764 uM incubated for 72 hrs by microscopic analysis; type: functional, cell-based
[31] = test system: ACHN; assay: Antiangiogenic activity in human ACHN cells assessed as reduction in mesh length at 26.764 uM incubated for 72 hrs by microscopic analysis; type: functional, cell-based
[32] = test system: K562; assay: Induction of cell cycle arrest in human K562 cells assessed as cell population at G2/M phase at 4.919 uM incubated for 72 hrs by propidium iodide staining based flow cytometry analysis (reference value: 22.9 +/- 1.9%); type: functional
[33] = test system: K562; assay: Induction of cell cycle arrest in human K562 cells assessed as cell population at G1 phase at 4.919 uM incubated for 72 hrs by propidium iodide staining based flow cytometry analysis (reference value: 44.4 +/- 1.5%); type: functional
[34] = test system: K562; assay: Induction of apoptosis in human K562 cells assessed as total apoptotic cells at 4.919 uM incubated for 72 hrs by Annexin-V/PI staining based flow cytometry analysis (reference value: 2.6 +/- 1.1%); type: functional
[35] = Downregulation of MMP-2 expression in human K562 cells at 4.919 uM incubated for 48 hrs by flow cytometry analysis; type: functional
[36] = test system: ACHN; assay: Antiangiogenic activity in human ACHN cells assessed as reduction in total segment length at 26.764 uM incubated for 72 hrs by microscopic analysis; type: functional, cell-based
[37] = test system: ACHN; assay: Antiangiogenic activity in human ACHN cells assessed as reduction in total tube length at 26.764 uM incubated for 72 hrs by microscopic analysis; type: functional, cell-based
[38] = test system: K562; assay: Induction of cell cycle arrest in human K562 cells assessed as cell population at S phase at 4.919 uM incubated for 72 hrs by propidium iodide staining based flow cytometry analysis (reference value: 32.7 +/- 3.1%); type: functional
[39] = test system: K562; assay: Induction of cell cycle arrest in human K562 cells assessed as cell population at sub-G1 phase at 4.919 uM incubated for 72 hrs by propidium iodide staining based flow cytometry analysis; type: functional

Cc1ccc(S(=O)(=O)N[C@H](CCC(=O)NCC(C)C)C(=O)O)cc1
IC50 [1]: 2.35 µM
IC50 [2]: > 2 µM
IC50 [3]: 32.2 µM
IC50 at 72 h [4]: 645 µM
IC50 [5]: 26.3 µM
IC50 [6]: 39.2 µM

Cc1ccc(S(=O)(=O)N[C@H](CCC(=O)NC(C)C)C(=O)O)cc1
IC50 [1]: 4.24 µM
IC50 [3]: 17.3 µM
IC50 at 72 h [4]: 347 µM
IC50 [5]: 20.3 µM
IC50 [6]: 19.5 µM

CCCCCNC(=O)CC[C@@H](NS(=O)(=O)c1ccc(C)cc1)C(=O)O
IC50 [1]: 8.37 µM
IC50 [3]: 14.4 µM
IC50 at 72 h [4]: 408 µM
IC50 [5]: 33.1 µM
IC50 [6]: 27.6 µM

Cc1ccc(S(=O)(=O)N[C@H](CCC(=O)NCc2ccccc2)C(=O)O)cc1
Activity [7]: Active
IC50 [1]: 1.99 µM
Activity [8]: inactive
Activity [9]: Active
Activity [10]: 14.7%
Activity [11]: Active
Activity [12]: 12%
Activity [13]: Active
Activity [14]: Active
IC50 [15]: 17.2 µM
Activity [16]: 56.4%
IC50 [2]: > 2 µM
Activity [17]: Active
Activity [18]: 20.1%
Activity [19]: inactive
IC50 [20]: 1.24 µM
Activity [21]: Active
Activity [22]: 39.7%
Activity [23]: 29.1%
Activity [24]: Tde
IC50 [3]: 3.57 µM
IC50 at 72 h [4]: 293 µM
Activity [25]: Active
IC50 [5]: 17.5 µM
Activity [26]: Active
IC50 [6]: 19.7 µM

CNC(=O)CC[C@@H](NS(=O)(=O)c1ccc(C)cc1)C(=O)O
IC50 [1]: 2.37 µM
IC50 [3]: 5.14 µM
IC50 at 72 h [4]: 203 µM
IC50 [5]: 28.9 µM
IC50 [6]: 25.2 µM

CCCCNC(=O)CC[C@@H](NS(=O)(=O)c1ccc([N+](=O)[O-])cc1)C(=O)O
IC50 [27]: 0.833 µM
IC50 [28]: 5.26 µM
IC50 [2]: > 2 µM
IC50 [3]: 18.4 µM
IC50 at 72 h [4]: 368 µM
IC50 [29]: 0.456 µM
IC50 [5]: 29 µM
IC50 [6]: 37.6 µM

CC(C)NC(=O)CC[C@@H](NS(=O)(=O)c1ccc([N+](=O)[O-])cc1)C(=O)O
IC50 [1]: 11 µM
IC50 [3]: 10.6 µM
IC50 at 72 h [4]: 271 µM
IC50 [5]: 37.5 µM
IC50 [6]: 43.5 µM

CCCCCNC(=O)CC[C@@H](NS(=O)(=O)c1ccc([N+](=O)[O-])cc1)C(=O)O
IC50 [28]: 6.79 µM
IC50 [3]: 12.7 µM
IC50 at 72 h [4]: 254 µM
IC50 [5]: 14.2 µM
IC50 [6]: 20.7 µM

CCNC(=O)CC[C@@H](NS(=O)(=O)c1ccc([N+](=O)[O-])cc1)C(=O)O
IC50 [1]: 7.76 µM
IC50 [3]: 12.2 µM
IC50 at 72 h [4]: 145 µM
IC50 [5]: 16.2 µM
IC50 [6]: 32.9 µM

O=C(CC[C@@H](NS(=O)(=O)c1ccc([N+](=O)[O-])cc1)C(=O)O)NCc1ccccc1
IC50 [27]: 0.561 µM
IC50 [1]: 4.91 µM
Activity [30]: Active
Activity [31]: Active
Activity [32]: 17.4%
Activity [33]: 49%
Activity [34]: 26.7%
IC50 [15]: 26.8 µM
Activity [35]: 19.6%
IC50 [2]: > 2 µM
Activity [36]: Active
IC50 [20]: 1.72 µM
Activity [37]: Active
Activity [38]: 33.6%
IC50 [3]: 5.68 µM
IC50 at 72 h [4]: 114 µM
IC50 [29]: 0.273 µM
IC50 [5]: 17.9 µM
Activity [39]: 4.6%
IC50 [6]: 57.5 µM

CCNC(=O)CC[C@@H](NS(=O)(=O)c1ccc(C)cc1)C(=O)O
IC50 [1]: 2.54 µM
IC50 [3]: 4.82 µM
IC50 at 72 h [4]: 491 µM
IC50 [5]: 32.3 µM
IC50 [6]: 16.5 µM

Cc1ccc(S(=O)(=O)N[C@H](CCC(N)=O)C(=O)O)cc1
IC50 [1]: 2.27 µM
IC50 [3]: 8.98 µM
IC50 at 72 h [4]: 279 µM
IC50 [5]: 19.9 µM
IC50 [6]: 18.3 µM

CCCCNC(=O)CC[C@@H](NS(=O)(=O)c1ccc(C)cc1)C(=O)O
IC50 [1]: 3.75 µM
IC50 [3]: 19.5 µM
IC50 at 72 h [4]: 391 µM
IC50 [5]: 16.8 µM
IC50 [6]: 25.9 µM

COc1ccc(S(=O)(=O)N(CC(=O)NO)CC(C)C)cc1
IC50 [1]: 4.77 µM
IC50 [3]: 13.5 µM

NC(=O)CC[C@@H](NS(=O)(=O)c1ccc([N+](=O)[O-])cc1)C(=O)O
IC50 [1]: 9.73 µM
IC50 [3]: 8.99 µM
IC50 at 72 h [4]: 173 µM
IC50 [5]: 26.4 µM
IC50 [6]: 20.5 µM

CNC(=O)CC[C@@H](NS(=O)(=O)c1ccc([N+](=O)[O-])cc1)C(=O)O
IC50 [1]: 5.69 µM
IC50 [3]: 20.8 µM
IC50 at 72 h [4]: 417 µM
IC50 [5]: 20.5 µM
IC50 [6]: 24.4 µM

CC(C)CNC(=O)CC[C@@H](NS(=O)(=O)c1ccc([N+](=O)[O-])cc1)C(=O)O
IC50 [1]: 8.06 µM
IC50 [3]: 10.8 µM
IC50 at 72 h [4]: 217 µM
IC50 [5]: 38.5 µM
IC50 [6]: 16.2 µM
